Earlier results on one compound are cited in article PMC4128785 (Molecular Pharmaceutics, 2014).

For the data set the following is noted: Sc(III) complex of DOTA.

Turning to `O=C(O)CN1CCN(CC(=O)O)CCN(CC(=O)O)CCN(CC(=O)O)CC1` [DOTA, 1,4,7,10-tetraazacyclododecane-N,N′,N″,N‴-tetraacetic acid], the “thermodynamic stability (−log K)” value is listed as 27.0.
